According to patent US7923443B2, “Pharmaceutical composition for the treatment of bone fracture” (Dong Wha Pharmaceutical Co., Ltd., priority 2004, dated 2011):
Marks after values point to notes of the source that are not given here.

Legend:
Assay type in all cases: in vivo, S.D. rats
[1] = tested on: rib fracture; assay: Effect of promoting fracture healing in rib fracture-induced rat model (overall); settings: compared with the results for N-hydroxy benzamidine compound above
Procedure: (§1) The benzamidine compound of Chemical Formula 1 was assayed for therapeutic effect on bone fracture in rat models subjected to rib fracture. Starting from 2 days after the induction of rib fracture, the administration of the benzamidine compound was continued for one, two, three and four weeks. Changes in (body weight, body weight gain, volume of bony callus, bone density, bone strength, and bone histopathology were observed.
(§2) A total of 80 S.D. rats (10-week-old, BioGenomics, Korea) was adapted to a laboratory environment for 12 days before being used in experiments. While being housed at a density of two or three to a plastic cage, the experimental animals were kept in a breeding room under controlled temperature (20 to 25° C.) and humidity (30 to 35%). Under light-dark cycles of 12 hours, the rats were allowed to have free access to feedstuff and tap water.
(§3) 10 mg and 50 mg of N-hydroxy-4-{5-[4-(5-isopropyl-2-methyl-1,3-thiazol-4-yl)phenoxy]pentoxy}benzamidine were completely dissolved in 5 ml of sterilized distilled water. The benzamidine compound in the solutions was orally administered at doses of 10 mg and 50 mg per kg of body weight once a day for one, two, three and four weeks from day 2 of the surgery. […]

[2] = Body weight gain in rib fracture-induced rat model
Procedure: as §1, §2
(§4) 10 mg and 50 mg of N-hydroxy-4-{5-[4-(5-isopropyl-2-methyl-1,3-thiazol-4-yl)phenoxy]pentoxy}benzamidine were completely dissolved in 5 ml of sterilized distilled water. The benzamidine compound in the solutions was orally administered at doses of 10 mg and 50 mg per kg of body weight once a day for one, two, three and four weeks from day 2 of the surgery.
(§5) All the experimental animals were anesthetized with ketamine hydrochloride and xylazine hydrochloride and underwent an operation for inducing a fracture on the 8th and the 9th rib. In this regard, the ribs were transversely cut with operation scissors. After the fracture induction, the fractured ribs were assembled to be aligned with each other and the wound cavity was closed through skin suture.
All the experimental animals were measured for body weight one day before the operation, the day of the operation, the day of administration, and 7, 14, 21 and 28 days after administration. In order to reduce the difference among individuals due to feedstuff intake, all experimental animals were starved for 18 hours or more on the day of the measurement. Also, to minimize the difference of change in body weight of individual animals, body weight gain during time periods from the day of the operation to 7, 14, 21 and 28 days after the administration were calculated.

[3] = tested on: bony callus; assay: Bone density of bony callus (DEXA), 9th rib
Procedure: as §1, §2, §4, §5
The 9th rib enucleated after the fracture induction was measured for the bone density around the bony callus using dual-energy x-ray absorptiometry (DEXA, PXImus; Lunar Medison, Wis.) and the bone density is calculated in mg/cm^2 in Table 7.

[4] = tested on: bony callus; assay: Histomorphometry of bony callus (connective, cartilage, bone tissue content), 8th rib
Procedure: as §1, §2, §4, §5
(§6) The 8th rib enucleated after the fracture induction was fixed in 10% neutral formalin, followed by decalcification by changing a decalcification solution (2.24% formic acid, 0.5N […]) with fresh solution once a day for five days. After completion of the decalcification, the rib was embedded in paraffin. The paraffin-embedded tissue was sliced at a thickness of 3 to 4 μm, stained with hematoxylin-eosin or Masson's trichrome and observed through an optical microscope.
From the rib tissue specimen prepared above, the amounts of the connective tissue, cartilage and bone tissue in the bony callus were examined using an Analysis Image processing system (SIS Germany) and are represented as percentages in Tables 3 to 5, below.

[5] = tested on: osteoclasts in the bony callus; assay: Number of osteoclasts in the bony callus, 8th rib
Procedure: as §1, §2, §4, §5, §6
Furthermore, the number of osteoclasts in the bony callus, particularly, within an area of (200 μm)^2 on the fracture surface at which endochondral ossification commenced, was measured using an Analysis Image processing system (SIS Germany).

[6] = tested on: bony callus; assay: Histopathological observation of 8th rib (FIG. 1); settings: all administration time periods; versus non-treated group; dose-dependent
Procedure: FIG. 1 an optical microphotograph showing sliced tissue specimens of the 8th rib extracted after fracture induction, stained with Masson's trichrome.
as §1, §2, §3

[7] = tested on: bony callus formed around the fractured 8th and 9th ribs; assay: Volume of bony callus in rib fracture-induced rat model
Procedure: as §1, §2, §4, §5
On the sacrificial day, the bony callus formed around the fractured 8th and 9th ribs was separated from adjacent tissues and taken out of all experimental animals. The enucleated bony calluses were measured for long and short diameters in millimeters. The volume of the bony callus was calculated from the measurements using the following mathematic formula 1. Volume of Bony callus=½×(a×b^2) Formula 1
a: long diameter of bony callus,
b: short diameter of bony callus.

[8] = tested on: bony callus; assay: Bone strength of bony callus (three point bending test), 9th rib
Procedure: as §1, §2, §4, §5
The bone strength around the fracture face at which a bony callus was formed in the 9th rib enucleated after the fracture induction was determined from three point bending tests using an Instron material testing system (Instron 6022; Instron, USA; speed 20 mm/min).

[9] = 10 mg/kg oral once a day, 7 days after administration
[10] = 10 mg/kg oral once a day, 14 days after administration
[11] = 10 mg/kg oral once a day, 21 days after administration
[12] = 10 mg/kg oral once a day, 28 days after administration
[13] = 50 mg/kg oral once a day, 7 days after administration
[14] = 50 mg/kg oral once a day, 14 days after administration
[15] = 50 mg/kg oral once a day, 21 days after administration
[16] = 50 mg/kg oral once a day, 28 days after administration

SMILES: Cc1nc(-c2ccc(OCCCCCOc3ccc(C(=N)NO)cc3)cc2)c(C(C)C)s1 [N-hydroxy-4-{5-[4-(5-isopropyl-2-methyl-1,3-thiazol-4-yl)phenoxy]pentoxy}benzamidine]
- Healing effects on bone fracture [1]: same healing effects as above

SMILES: Cc1nc(-c2ccc(OCCCCCOc3ccc(C(=N)NO)cc3)cc2)c(C(C)C)s1 [Cpd. Of Chemical Formula 1, N-hydroxy-4-{5-[4-(5-isopropyl-2-methyl-1,3-thiazol-4-yl)phenoxy]pentoxy}benzamidine]
- Changes in Body Weight Gain [2, 9]: 16.00 ± 13.55 g
- Changes in Body Weight Gain [2, 10]: 44.40 ± 14.54 g
- Changes in Body Weight Gain [2, 11]: 46.40 ± 22.39 g
- Changes in Body Weight Gain [2, 12]: 61.20 ± 22.81 g
- Changes in Body Weight Gain [2, 13]: 14.80 ± 08.81 g
- Changes in Body Weight Gain [2, 14]: 36.82 ± 29.52 g
- Changes in Body Weight Gain [2, 15]: 68.60 ± 16.65 g
- Changes in Body Weight Gain [2, 16]: 84.40 ± 23.37 g
- Changes in Bone Density of Bony Callus [3, 9]: 0.24 ± 0.04 mg/cm^2
- Changes in Bone Density of Bony Callus [3, 10]: 0.32 ± 0.04 mg/cm^2
- Changes in Bone Density of Bony Callus [3, 11]: 0.39 ± 0.04 mg/cm^2
- Changes in Bone Density of Bony Callus [3, 12]: 0.55 ± 0.06 mg/cm^2
- Changes in Bone Density of Bony Callus [3, 13]: 0.24 ± 0.03 mg/cm^2
- Changes in Bone Density of Bony Callus [3, 14]: 0.32 ± 0.04 mg/cm^2
- Changes in Bone Density of Bony Callus [3, 15]: 0.44 ± 0.07 mg/cm^2
- Changes in Bone Density of Bony Callus [3, 16]: 0.57 ± 0.04 mg/cm^2
- Changes in Content of Bone Tissue in Bony Callus [4, 9]: 37.95 ± 6.44 % relative to total bony callus
- Changes in Content of Cartilage Tissue in Bony Callus [4, 9]: 24.79 ± 5.43 % relative to total bony callus
- Changes in Content of Connective Tissue of Bony Callus [4, 9]: 33.19 ± 3.06 % relative to total bony callus
- Changes in Content of Bone Tissue in Bony Callus [4, 10]: 54.31 ± 9.50 % relative to total bony callus
- Changes in Content of Cartilage Tissue in Bony Callus [4, 10]: 23.77 ± 3.44 % relative to total bony callus
- Changes in Content of Connective Tissue of Bony Callus [4, 10]: 6.28 ± 0.72 % relative to total bony callus
- Changes in Content of Bone Tissue in Bony Callus [4, 11]: 66.71 ± 5.41 % relative to total bony callus
- Changes in Content of Cartilage Tissue in Bony Callus [4, 11]: 18.51 ± 2.29 % relative to total bony callus
- Changes in Content of Connective Tissue of Bony Callus [4, 11]: 5.55 ± 1.42 % relative to total bony callus
- Changes in Content of Bone Tissue in Bony Callus [4, 12]: 83.30 ± 4.43 % relative to total bony callus
- Changes in Content of Cartilage Tissue in Bony Callus [4, 12]: 6.59 ± 2.02 % relative to total bony callus
- Changes in Content of Connective Tissue of Bony Callus [4, 12]: 3.20 ± 0.89 % relative to total bony callus
- Changes in Content of Bone Tissue in Bony Callus [4, 13]: 39.24 ± 14.12 % relative to total bony callus
- Changes in Content of Cartilage Tissue in Bony Callus [4, 13]: 22.42 ± 5.45 % relative to total bony callus
- Changes in Content of Connective Tissue of Bony Callus [4, 13]: 29.51 ± 5.70 % relative to total bony callus
- Changes in Content of Bone Tissue in Bony Callus [4, 14]: 55.94 ± 8.38 % relative to total bony callus
- Changes in Content of Cartilage Tissue in Bony Callus [4, 14]: 20.09 ± 6.38 % relative to total bony callus
- Changes in Content of Connective Tissue of Bony Callus [4, 14]: 6.06 ± 0.44 % relative to total bony callus
- Changes in Content of Bone Tissue in Bony Callus [4, 15]: 74.07 ± 8.43 % relative to total bony callus
- Changes in Content of Cartilage Tissue in Bony Callus [4, 15]: 11.49 ± 2.31 % relative to total bony callus
- Changes in Content of Connective Tissue of Bony Callus [4, 15]: 3.58 ± 0.62 % relative to total bony callus
- Changes in Content of Bone Tissue in Bony Callus [4, 16]: 87.27 ± 8.97 % relative to total bony callus
- Changes in Content of Cartilage Tissue in Bony Callus [4, 16]: 5.37 ± 1.38 % relative to total bony callus
- Changes in Content of Connective Tissue of Bony Callus [4, 16]: 2.59 ± 0.52 % relative to total bony callus
- Changes in Population of Osteoclasts within Bony Callus [5, 9]: 43.80 ± 3.83 Counts present within (200 μm)^2 of bony callus
- Changes in Population of Osteoclasts within Bony Callus [5, 10]: 50.60 ± 2.70 Counts present within (200 μm)^2 of bony callus
- Changes in Population of Osteoclasts within Bony Callus [5, 11]: 31.00 ± 6.67 Counts present within (200 μm)^2 of bony callus
- Changes in Population of Osteoclasts within Bony Callus [5, 12]: 21.60 ± 3.58 Counts present within (200 μm)^2 of bony callus
- Changes in Population of Osteoclasts within Bony Callus [5, 13]: 42.60 ± 4.62 Counts present within (200 μm)^2 of bony callus
- Changes in Population of Osteoclasts within Bony Callus [5, 14]: 53.60 ± 2.41 Counts present within (200 μm)^2 of bony callus
- Changes in Population of Osteoclasts within Bony Callus [5, 15]: 22.20 ± 3.03 Counts present within (200 μm)^2 of bony callus
- Changes in Population of Osteoclasts within Bony Callus [5, 16]: 17.60 ± 2.97 Counts present within (200 μm)^2 of bony callus
- Bone tissue in bony callus, histopathological observation (FIG. 1) [6]: increased bone tissue in bony callus in all administration time periods
- Changes in Bony Callus Volume [7, 9]: 12.84 ± 4.42* mm^3
- Changes in Bony Callus Volume [7, 10]: 5.47 ± 1.81* mm^3
- Changes in Bony Callus Volume [7, 11]: 4.73 ± 2.13* mm^3
- Changes in Bony Callus Volume [7, 12]: 3.96 ± 2.41* mm^3
- Changes in Bony Callus Volume [7, 13]: 8.62 ± 3.43* mm^3
- Changes in Bony Callus Volume [7, 14]: 4.36 ± 1.44* mm^3
- Changes in Bony Callus Volume [7, 15]: 3.84 ± 1.86* mm^3
- Changes in Bony Callus Volume [7, 16]: 3.37 ± 0.79* mm^3
- Changes in bone strength of bony callus [8, 9]: 2.15 ± 0.42 Nos. of Impact applied
- Changes in bone strength of bony callus [8, 10]: 2.57 ± 0.65 Nos. of Impact applied
- Changes in bone strength of bony callus [8, 11]: 3.10 ± 0.40 Nos. of Impact applied
- Changes in bone strength of bony callus [8, 12]: 3.26 ± 0.43 Nos. of Impact applied
- Changes in bone strength of bony callus [8, 13]: 2.35 ± 0.47 Nos. of Impact applied
- Changes in bone strength of bony callus [8, 14]: 2.84 ± 0.34 Nos. of Impact applied
- Changes in bone strength of bony callus [8, 15]: 3.23 ± 0.35 Nos. of Impact applied
- Changes in bone strength of bony callus [8, 16]: 3.35 ± 0.38 Nos. of Impact applied

SMILES: Cc1nc(-c2ccc(OCCCCCOc3ccc(C(=N)N)cc3)cc2)c(C(C)C)s1 [4-{5-[4-(5-isopropyl-2-methyl-1,3-thiazol-4-yl)phenoxy]pentoxy}benzamidine]
- Healing effects on bone fracture [1]: same healing effects as above
